Test results reported in patent publication US20070185176A1, “Heparanase inhibitors and uses thereof” (Insight Bioharmaceuticals Ltd., priority 2004, published 2007).

How the values were obtained:
HT1080 cells = assay: In vitro assay of invasion inhibition (BD BioCoat Angiogenesis System, matrigel); type: cell-based, human; conditions: for Invasion: HT1080 cells through matrigel, non-toxic concentration, 22 hours
Procedure: (c) In Vitro Assay of Invasion Inhibition by Heparanase Inhibitors
The ability of the compounds of the invention to inhibit cell invasion was determined quantitatively by the in vitro Endothelial Cell Migration assay using a BD BioCoat Angiogenesis System kit. The kit consists of a 24-multiwell insert plate (FluoroBlok, BD Falcon) containing a microporous (3.0 μm pore size) polyethylene terephthalate (PET) membrane that is capable of blocking fluorescence completely (>99% efficiency). This membrane is uniformly coated with matrigel (BD Matrigel Matrix). The uniform layer of matrigel matrix serves as a reconstituted authentic basement membrane in vitro, providing a true barrier to non-invasive cells, but allowing endothelial cells to attach to the membrane and freely migrate towards an angiogenic stimulus in the lower chamber of the insert plate. Post-labeling the cells with a fluorescent dye and measuring the fluorescence of invading cells in a fluorescent plate reader, provides quantitative measurement of cell invasion.
To cover the optimal seeding density for HT1080 cells, suspensions containing various cell concentrations were prepared: 1 ml of 3×10^5 cells/ml, 8 ml of 1.5×10^5 cells/ml and 1 ml of 0.75×10^5 cells/ml. The top chambers of each well in the inserts was filled with 0.25 ml cell-suspension, […] DMEM containing 5% fetal calf serum and an inhibitor solution. The plates were incubated for 22 hours at 37° C. and 8% CO2 atmosphere. At the end of incubation, the medium was aspirated from the upper chambers, and the insert was transferred into a second 24-well plate containing 0.5 ml/well of the fluorescent dye Calcein AM solution (4 μg/ml per plate, prepared from 50 μg Calcein AM dissolved in 20 μl DMSO and 12.5 ml of warm HBSS medium), and incubated for 90 minutes at 37° C., 8% CO2 atmosphere. Fluorescence of invaded cells was read in a fluorescence plate reader with bottom read capabilities at excitation/emission wavelength of 485/530 nm, without further manipulation. Only those labeled cells that have invaded the matrigel and passed through the pores of the PET membrane, were detected.

[1] = molecular target: T1, human recombinant heparanase (h-hpa) (Homo sapiens, UniProt Q9Y251); assay: In vitro dimethylmethylene blue (DMB) assay for heparanase activity
T1 sequence (Q9Y251 158-543 limits assumed): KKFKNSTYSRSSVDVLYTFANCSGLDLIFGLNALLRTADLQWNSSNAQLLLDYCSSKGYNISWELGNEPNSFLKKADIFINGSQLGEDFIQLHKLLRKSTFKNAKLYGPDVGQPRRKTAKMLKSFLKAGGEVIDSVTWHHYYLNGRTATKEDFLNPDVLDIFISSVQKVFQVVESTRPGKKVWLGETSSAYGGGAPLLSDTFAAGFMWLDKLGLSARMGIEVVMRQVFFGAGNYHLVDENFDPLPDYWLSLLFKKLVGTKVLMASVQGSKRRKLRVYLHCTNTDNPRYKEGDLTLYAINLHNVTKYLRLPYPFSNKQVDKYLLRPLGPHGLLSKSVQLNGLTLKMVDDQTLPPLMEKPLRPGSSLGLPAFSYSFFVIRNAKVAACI
T1 sequence (Q9Y251 36-109 limits assumed): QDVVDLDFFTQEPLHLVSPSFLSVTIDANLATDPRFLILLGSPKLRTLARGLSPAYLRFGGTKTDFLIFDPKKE
Procedure: (a) In Vitro Dimethylmethylene Blue (DMB) Assay for Heparanase Activity
Heparin Sepharose CL-6B beads were added up to the top of the wells of a multiscreen column loader (Millipore). A 96-well multiscreen plate containing 0.65 μm hydrophilic, low protein binding, Durapore membrane (Millipore) was placed, upside down, on top of the multiscreen column loader. The column loader and the multiscreen plate were held together, turned over, and the beads were uniformly transferred from the column loader to the multiscreen plate (Millipore, MADVM 650). Double-distilled water (DDW) was then added to the beads, which were allowed to swell for one minute, and then washed (three times) with DDW under vacuum. Heparin concentration was estimated to be 10 μM/well.
To each well, phosphate-buffered saline (PBS) containing 1% bovine serum albumin (BSA; 70 μl/well) and DMB (32 mg of DMB were dissolved in 5 ml ethanol, diluted to 1 liter with formate buffer containing 4 g sodium formate and 4 ml formic acid; 120 μl/well) were added. Color was developed after 5 minutes, and the absorbance of the samples was determined using a microplate reader (Spectra Max, Molecular Devices) at 530 nm with 570 nm as reference. The absorbance correlated to heparanase activity. As a control, heparanase was added to the heparin Sepharose swollen beads in the multiscreen plate and the heparanase reaction products were filtered immediately thereafter and the absorbance of these control samples was subtracted from all other samples.
The cell extracts were centrifuged and resuspended in 20 mM phosphate citrate buffer, pH 5.4 containing 50 mM NaCl. The cells were lysed by three cycles of freezing and thawing. The cell lysates were centrifuged (10000×g for 5 min), supernatants were collected and then assayed for heparanase activity using the DMB assay.
The partially purified human recombinant heparanase or the crude cell extracts expressing either human or mouse recombinant heparanase were added for a 3-hour incubation and the reaction continued as described above. Absorbance of the developing color was measured as described above.

## CCCCCCCCCCCCCCCCCC(=O)NC1=NN(c2ccc(Oc3ccccc3)c(S(=O)(=O)O)c2)C(=O)C1 [Compound 1]
HT1080 cells
  inhibition of cell invasion: effective inhibitors of cell invasion
  Invasion: yes

## CCCCCCCCCCCCCCCCCC(=O)NNC(=O)CC(=O)Nc1ccccc1C(=O)O [Compound 2]
HT1080 cells
  inhibition of cell invasion: effective inhibitors of cell invasion
  Invasion: yes
[1]
  IC50: 1700 nM

## CCCCCCCCCCCCCCCCCCN(C(=O)c1ccc2ccccc2c1O)c1cc(C(=O)O)cc(C(=O)O)c1 [Compound 3]
HT1080 cells
  inhibition of cell invasion: effective inhibitors of cell invasion
  Invasion: yes
[1]
  IC50: 380 nM

## CCCCCCCCCCCCCCCCCC1=Nn2c(nc3c(C(=O)O)cc(S(=O)(=O)O)cc32)C1 [Compound 4]
HT1080 cells
  Invasion: yes
[1]
  IC50: 1200 nM

## CCCCCCCCCCCCCCCCCC(=O)NC1=NN(c2ccc(Oc3ccccc3)c(S(=O)(=O)O)c2)C(=O)C1/N=N/c1cc(C(=O)O)c(O)cc1Cl (centres unmarked) [Compound 9]
HT1080 cells
  Invasion: yes
[1]
  IC50: 160 nM

## CCCCCCCCCCCCCCCCCC1=NN(c2ccc(Oc3ccccc3)c(S(=O)(=O)O)c2)C(=O)C1/N=N/c1ccc(N(CC)CC)cc1 (centres unmarked) [Compound 10]
HT1080 cells
  Invasion: yes
[1]
  IC50: 260 nM

## CCCCCCCCCCCCCCCCCC1=NN(c2ccc(Oc3ccccc3)c(S(=O)(=O)O)c2)C(=O)C1/N=N/c1c(C)n[nH]c1C (centres unmarked) [Compound 12]
HT1080 cells
  Invasion: yes
[1]
  IC50: 240 nM

## CCCCCCCCCCCCCCCC1=NN(c2ccc(S(=O)(=O)O)cc2)C(=O)C1Br (centres unmarked) [Compound 13]
HT1080 cells
  Invasion: yes
[1]
  IC50: 1000 nM

## CCCCCCCCCCCCCCCCCC1=NN(c2ccc(Oc3ccccc3)c(S(=O)(=O)O)c2)C(=O)C1/N=N/c1ccc(O)c(OC)c1 (centres unmarked) [Compound 15]
HT1080 cells
  Invasion: yes
[1]
  IC50: 250 nM

## CCCCCCCCCCCCCCCCCC1=NN(c2ccc(Oc3ccccc3)c(S(=O)(=O)O)c2)C(=O)C1/N=N/c1cccc(O)c1 (centres unmarked) [Compound 16]
HT1080 cells
  Invasion: yes
[1]
  IC50: 220 nM

## CCCCCCCCC(CCCCCCCC)C1=NN(c2cccc(S(=O)(=O)O)c2)C(=O)C1 [Compound 17]
HT1080 cells
  Invasion: yes
[1]
  IC50: 2700 nM

## CCCCCCCCCCCCCCCCCC(=O)NC1=NN(c2ccc(Oc3ccccc3)c(S(=O)(=O)O)c2)C(=O)C1/N=N/c1cc(C(=O)OC)ccc1O (centres unmarked) [Compound 18]
HT1080 cells
  Invasion: yes
[1]
  IC50: 290 nM

## CCCCCCCCCCCCCCCCCC1=NN(c2ccc(Oc3ccccc3)cc2S(=O)(=O)O)C(=O)C1/N=N/c1ccc(OC)cc1 (centres unmarked) [Compound 19]
HT1080 cells
  Invasion: yes
[1]
  IC50: 320 nM

## CCCCCCCCCCCCCCCCCC(=O)NC1=NN(c2ccc(Oc3ccccc3)c(S(=O)(=O)O)c2)C(=O)C1/N=N/c1c(C)nn(C)c1C (centres unmarked) [Compound 22]
HT1080 cells
  Invasion: yes
[1]
  IC50: 650 nM

## CCCCCCCCCCCCCCCCCC1=NN(c2ccc(Oc3ccc(OCC)cc3)c(S(=O)(=O)O)c2)C(=O)C1 [Compound 24]
HT1080 cells
  Invasion: yes
[1]
  IC50: 630 nM

## CCCCCCCCCCCCCCCCOc1ccccc1C1C=NN(c2ccc(S(=O)(=O)O)cc2)C1=O (centres unmarked) [Compound 28]
HT1080 cells
  Invasion: yes
[1]
  IC50: 1000 nM

## CCCCCCCCCCCCCCCCCC1=NN(c2ccc(Oc3ccccc3)c(S(=O)(=O)O)c2)C(=O)C1 [Compound 29]
HT1080 cells
  Invasion: yes
[1]
  IC50: 320 nM

## CCCCCCCCCCCCCCCCCC1=NN(c2ccc(Oc3ccccc3)c(S(=O)(=O)O)c2)C(=O)C1C(C)C (centres unmarked) [Compound 30]
HT1080 cells
  Invasion: yes
[1]
  IC50: 160 nM

## CCCCCCCCCCCCCCCc1ccc(OC(CC)C(=O)NCCCNC(=O)c2ccc3ccccc3c2O)cc1 (centres unmarked) [Compound 31]
HT1080 cells
  Invasion: yes
[1]
  IC50: 520 nM

## CCCCCCCCCCCCCCCCCC(=O)Nc1nn(-c2ccc(Oc3ccccc3)c(S(=O)(=O)O)c2)c(O)c1/N=N/c1c(C)nn(CCCCCCCCCC)c1C [Compound 32]
HT1080 cells
  Invasion: yes
[1]
  IC50: 240 nM

## CCCCCCCCCCCCCCCCCCN(C(=O)c1cc(Br)c2ccccc2c1O)c1cc(C(=O)O)cc(C(=O)O)c1 [Compound 43]
HT1080 cells
  Invasion: yes
[1]
  IC50: 550 nM

## CCCCCCCCCCCCCC(=O)NC1=NN(c2ccc(Oc3ccccc3)c(S(=O)(=O)O)c2)C(=O)C1 [Compound 83]
[1]
  IC50: 400 nM

## CCCCCCCCCCCCCCC(=O)NC1=NN(c2ccc(Oc3ccccc3)c(S(=O)(=O)O)c2)C(=O)C1 [Compound 84]
[1]
  IC50: 730 nM

## CCCCCCCCCCC/C=C\CCCCC(=O)NC1=NN(c2ccc(Oc3ccccc3)c(S(=O)(=O)O)c2)C(=O)C1 [Compound 85]
[1]
  IC50: 400 nM

## CCCCCCCCCCC/C=C\CCCCC(=O)Nc1cc(C(=O)O)ccc1Oc1cc(C(=O)O)cc(C(=O)O)c1 [Compound 86]
[1]
  IC50: 2000 nM

## CCCCCCCCCCCC1OC1CCCCC(=O)Nc1cc(C(=O)O)ccc1Oc1cc(C(=O)O)cc(C(=O)O)c1 (centres unmarked) [Compound 87]
[1]
  IC50: 400 nM

## CCCCCCCCCCCCCCCCOc1ccc(S(=O)(=O)O)cc1C(=O)O [Compound 88]
[1]
  IC50: 4400 nM

## CCCCCCCCCCCCCCCCS(=O)(=O)c1ccc(S(=O)(=O)O)cc1C(=O)O [Compound 89]
[1]
  IC50: 5500 nM

## CCCCCCCCCCCCCCCCCC/C=C/c1cc(C(=O)O)c2oc3c(C(=O)O)cccc3c2c1 [Compound 90]
[1]
  IC50: 8500 nM

## CCCCCCCCCCCCCCCCCCNCC(O)Cn1c2ccc(Br)cc2c2cc(Br)ccc21 (centres unmarked) [Compound 91]
[1]
  IC50: 15000 nM

## CCCCCCCCCCCC1SC1CCCCC(=O)Nc1cc(C(=O)O)ccc1Oc1cc(C(=O)O)cc(C(=O)O)c1 (centres unmarked) [Compound 92]
[1]
  IC50: 500 nM

## CCCCCCCCCCCC(Cl)C(O)CCCCC(=O)Nc1cc(C(=O)O)ccc1Oc1cc(C(=O)O)cc(C(=O)O)c1 (centres unmarked) [Compound 93]
[1]
  IC50: 9150 nM

## C=CCCCCCCCCC(=O)CCCCCC(=O)Nc1cc(C(=O)O)ccc1Oc1cc(C(=O)O)cc(C(=O)O)c1 [Compound 94]
[1]
  IC50: 18000 nM

## CCCCCCCCCCCC1OC1CCCCC(=O)Nc1cc(C(=O)O)ccc1Oc1cc(C(N)=O)cc(C(=O)O)c1 (centres unmarked) [Compound 95]
[1]
  IC50: 1000 nM

## CCCCCCCCCCCC1OC1CCCCC(=O)Nc1cc(C(=O)O)ccc1Oc1cc(C(N)=O)cc(C(N)=O)c1 (centres unmarked) [Compound 96]
[1]
  IC50: 1600 nM

## CCCCCCCCCCCCC/C=C/CC(O)(C(=O)O)C(F)(F)F (centres unmarked) [Compound 97]
[1]
  IC50: 6000 nM

## CCCCCCCCCCCCC/C=C/CC(O)(C(=O)Cc1cc(C(=O)O)ccc1Oc1cc(C(=O)O)cc(C(=O)O)c1)C(F)(F)F (centres unmarked) [Compound 98]
[1]
  IC50: 1500 nM

## CCCCCCCCCCCC1OC1CCCCC(=O)On1nnc2ccccc2c1=O (centres unmarked) [Compound 99]
[1]
  IC50: 16000 nM

## CCCCCCCCCCCC1OC1CCCCC(=O)NC1=NN(c2ccc(Oc3ccccc3)c(S(=O)(=O)O)c2)C(=O)C1 (centres unmarked) [Compound 100]
[1]
  IC50: 270 nM

## CCCCCCCCCCCCCCCCCCn1c(-c2ccccc2)nc2cc(S(=O)(=O)O)ccc21 [Compound 102]
[1]
  IC50: 630 nM

## CCCCCCCCCCCCCCCCCCNC(=O)C1CC(=O)N(c2ccc(Oc3ccc(S(=O)(=O)O)cc3)cc2)C1 (centres unmarked) [Compound 103]
[1]
  IC50: 7700 nM

## CCCCCCCCCCCCCCCCCCNC(=O)C1CC(=O)N(c2ccc(Oc3ccc(S(=O)(=O)O)cc3)c(S(=O)(=O)O)c2)C1 (centres unmarked) [Compound 104]
[1]
  IC50: 470 nM

## CCCCCCCCCCCCCCCCCCNC(=O)C1CC(=O)N(c2ccc(Oc3ccc(Br)cc3)c(S(=O)(=O)O)c2)C1 (centres unmarked) [Compound 105]
[1]
  IC50: 860 nM

## CCCCCCCCCCCCCCCCCCNC(=O)C1CC(=O)N(c2ccc(Oc3ccc(C(N)=O)cc3)c(S(=O)(=O)O)c2)C1 (centres unmarked) [Compound 106, 2-(4-amido-phenoxy)-5-(4-octadecyl-carbamoyl-2-oxo-pyrrolidin-1-yl)-benzene sulfonic acid]
[1]
  IC50: 300 nM

## CCCCCCCCCCCCCCCCCCNC(=O)C1CC(=O)N(c2ccc(Oc3ccc(C(=O)O)cc3)c(S(=O)(=O)O)c2)C1 (centres unmarked) [Compound 107, 2-(4-carboxy-phenoxy)-5-(4-octadecyl-carbamoyl-2-oxo-pyrrolidin-1-yl)-benzene sulfonic acid]
[1]
  IC50: 330 nM
